Usually EC50 stands for the concentration at which the effect is half-maximal. The term IC50 denotes the concentration that gives 50% inhibition.

Molecules are shown by their SMILES.

In one experiment the target is T1, WT ErbB2 (Homo sapiens, UniProt P04626).
T1 construct: expressed in transfected cells; host or cells: HBMEC
The experiment in a line: Western blot pY1248, WT ErbB2 in transfected HBMECs. The following applies: 0, 5, 10 or 20 μM, 48 h. The format is cell-based. How it is done: HBMECs cells were transfected with plasmids encoding WT, ΔEBM (a form of ErbB2 carrying mutations in the juxtamembrane domain and unable to bind to the Ezrin FERM domain), V659E or p95 ErbB2 and treated with 0, 5, 10 or 20 μM ZU for 24 h. ErbB2 activation was then analyzed by western blot analysis using a phospho-ErbB2-specific antibody (pY1248) and a tubulin antibody as a loading control. Histograms show optical density quantification.
(§1) HBMECs cells were transfected with plasmids encoding WT, V777L or V842I and treated with 0, 5, 10 or 20 μM ZU or EB1 for 48 h. ErbB2 activation was then analyzed by western blot analysis using a phospho-ErbB2-specific antibody (pY1248) and a total ErbB2 antibody. Histograms show optical density quantification.
Background: A western blot detects proteins with antibodies after separation by electrophoresis.

In experiment [1] the target is peptide encoding the juxtamembrane region of ERBB2 (Homo sapiens, UniProt P04626). The experiment in a line: Surface Plasmon Resonance, Biacore T200. The format is binding. An excerpt: We analyzed the ability of ZU to directly bind to the juxtamembrane domain of ErbB2 using Surface Plasmon Resonance assays on a Biacore T200. For that, we compared the affinity of the compounds for a peptide containing the Ezrin binding motif […] of ErbB2 immobilized on sensorchips, which was reflected by the amplitude of the SPR response.
Compound ZU and EB1 were validated for their interaction with peptide encoding the juxtamembrane region of ERBB2 using a Biacore T200 (IECB, Bordeaux). Biotinylated peptide encoding the juxtamembrane region of ERBB2 (biotin-[…]) has been immobilized on Streptavidin-coated sensor chips (Series S sensor chip SA, GE Healthcare). Compound ZU in PBS, 0.02% tween20 buffer was used as analyte, and the Ezrin FERM domain has been used as a positive control.
On the technique in general: In SPR one partner is held on a chip, and binding of the other changes the refractive index at the surface.

In experiment [2] the test system is V842I ErbB2-transfected cells. The experiment can be described thus: MTT cell proliferation, V842I ErbB2-transfected HBMEC. The following applies: day 3. Format: cell-based. How it is done: (§2) The WT, V777L or V842I ErbB2-transfected cells were treated with 5 or 10 μM of ZU and cell proliferation was determined each day during 3 days using an MTT assay. Non transfected cells were included as a negative control.
(§3) The WT, V777L or V842I ErbB2-transfected cells were treated with 5 or 10 μM of EB1 and cell proliferation was determined each day during 3 days using an MTT assay. Non transfected cells were included as a negative control.

Experiment [3] concerns V777L ErbB2-transfected cells. The experiment can be described thus: MTT cell proliferation, V777L ErbB2-transfected HBMEC. The following applies: day 3. Format: cell-based. The procedure:
as §2, §3

In another experiment the target is T2, V777L ErbB2 (Homo sapiens, UniProt P04626, V777L).
T2 construct: expressed in transfected cells; host or cells: HBMEC
The experiment in a line: Western blot pY1248, V777L ErbB2 in transfected HBMECs. The following applies: 0, 5, 10 or 20 μM, 48 h. The format is cell-based. The procedure:
as §1

Experiment [4] relates to EGFR/ErBB2 or ErbB3/ErbB2 heterodimers-dependent signalling pathways. The experiment can be described thus: Ligand-dependent ErbB2 activation (EGF or HRG) in HBMECs, western blot. Format: cell-based. The following applies: pre-treatment 1 h or 24 h. How it is done:
In physiological conditions, ErbB2 activation occurs in heterodimer with the other ErbB family members, such as the EGFR in response to EGF stimulation or ErbB3 in response to heregulin (HRG) stimulation. We therefore addressed whether ZU, EB1 and their derivatives also affected the ligand-dependent physiological ErbB2 activation.
16 h-starved HBMECs cells were pre-treated or not for 1 h or 24 h with ZU, […] and their derivatives or AG1478 before EGF (50 ng/mL) or HRG1β (100 ng/mL) stimulation for 5 minutes. The activation of EGFR/ErBB2 or ErbB3/ErbB2 heterodimers-dependent signalling pathways was then analysed by western blot experiments using pAkt, Akt, pERK, ERK or 4G10 antibodies.

Another experiment has as its system MDA-MB-231. The experiment in a line: MTT cell proliferation, MDA-MB-231. The following applies: 10 μM. Format: cell-based. How it is done: We then analyzed the ability of ZU and EB1 and their derivatives to decrease the ErbB2-dependent cell proliferation.
SKBR3, BT474, MCF-7, MDA-MB-231 and HBMEC cells were treated with the compounds as indicated, and cell proliferation was determined each day during 3 days using an MTT assay. Non treated cells were included as a negative control.
The ErbB2-overexpressing gastric cancer cell line N87 and MDAMB-231, a non ErbB2-overexpressing breast cancer cell line were treated with 3, 5 or 7 μM of ZU and cell proliferation was determined each day during 3 days using an MTT assay. Non treated cells were included as a negative control.
The ErbB2-overexpressing ovarian cancer cell line SKOV3 and MDAMB-231, a non ErbB2-overexpressing breast cancer cell line were treated with 3, 5 or 7 μM of ZU and cell proliferation was determined each day during 3 days using an MTT assay. Non treated cells were included as a negative control.

Experiment [5] deals with T3, ErbB2 (Homo sapiens, UniProt P04626). The experiment in a line: ErbB2 phosphorylation in SKBR3 cells, dot blot (4G10). The format is cell-based. Also noted: endogenous in cells; host or cells: SKBR3. The following applies: SKBR3, 24 h. The procedure: The ability of ZU and EB1 and their derivatives to inhibit ErbB2 activity in cellulo on a commonly used ErbB2-overexpressing breast cancer cell line SKBR3 was analyzed. SKBR3 were treated 24 h with increasing concentrations of the compounds (0.625-80 μM) and ErbB2 phosphorylation was addressed by dot blot analysis using an anti-phosphotyrosine antibody (clone 4G10). Quantifications show the result of two independent experiments.

Experiment [6] deals with T3, ErbB2. The experiment can be described thus: ErbB2 activation in N87 cells, dot blot (4G10). The format is cell-based. Also noted: endogenous in cells; host or cells: N87. How it is done:
The phosphotyrosine content in the ErbB2-overexpressing gastric cancer cell line N87 was analyzed by dot blot using an anti-phosphotyrosine antibody (clone 4G10). As in these cells, ErbB2 is the main phosphorylated protein, decreased in total phosphotyrosine content mainly reflected inhibition of ErbB2 activity. As a control, the non-specific ErbB2 kinase inhibitor AG1478 was used. Quantifications show the result of two independent experiments.

Regarding `O=C1c2ccccc2[Se](=O)N1c1ccccc1` (centres unmarked) [EB1, Ebselen oxide], at WT ErbB2, the “ErbB2 WT activation (in words)” value is “potently decrease”. Also, in [1], the “binding to immobilized ErbB2 juxtamembrane peptide (SPR, in words)” value was “bound to the immobilized peptide”. In addition, the “decrease of the proliferation of V842I transfected HBMEC” value in experiment [2] (5 μM) is 55%; in [2] (10 μM), 90%. Further, the “decrease of the proliferation of V777L transfected HBMEC” value in experiment [3] (5 μM) turned out to be 70%; in experiment [3] (10 μM) it was 85%. The “ErbB2 V777L activation (in words)” value at V777L ErbB2 was “potently decrease”. The “ligand-dependent ErbB2 activation induced by EGF or HRG stimulation (in words)” value in experiment [4] is “absence of inhibition”. Also, the “effect on MDA-MB-231 proliferation (in words)” value in the experiment on MDA-MB-231 was “without any effect”. The Emax at ErbB2 [5] (SK-BR-3, 0.625-80 μM, read-out: ErbB2 activation 24 h Max inhibition, %) turned out to be 66.9%. The “maximum inhibition of ErbB2 phosphorylation” value at ErbB2 [5] was 70%. Also, on ErbB2 [5] (read-out: ErbB2 activation 24 h EC50), the EC50 was found to be 23.4 µM. On ErbB2 [5] (read-out: IC50 ErbB2 phosphorylation), the IC50 came to 20 µM. Moreover, the “ErbB2 activation in N87 cell line (in words)” value on ErbB2 [6] is “potently decrease ErbB2 activation”.

These data come from patent US10766873B2, “Zuclopenthixol hydrochloride derivatives and Ebselen derivatives as ErbB2 inhibitors” (Centre National de la Recherche Scientifique (CNRS), priority 2016, dated 2020).
